pEC50: −log10 of the molar value.
These compounds were tested on M17-TAU P301L cells (assay: TAU cytotoxicity assay: LDH leakage of retinoic acid incubated M17-TAU P301L cells). Conditions: Homo sapiens, 168 h, reduction of LDH activity of retinoic acid incubated M17-TAU P301L cells, 7 days.
Assay type: cell-based, human
In short: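 M17 neuroblastoma cells stably expressing human TAU P301L, seeded at 2500 cells/cm2 in Optimem with 1% FCS, then given 2.5 μM retinoic acid (stock before 1:1 addition) and grown 7 days at 37 °C. Cytotoxicity read as LDH leaked into medium; EC50 derived from these measurements.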
For O=C(NCCc1c[nH]c2ccc(Cl)cc12)c1ncc(-c2ccccc2)o1 [Example D53, N-(2-(5-chloro-1H-indol-3-yl)ethyl)-5-phenyloxazole-2-carboxamide], the pEC50 was 6.77. O=C(NCCc1c[nH]c2ccc(Cl)cc12)C1CCN(c2ccc(F)c(F)c2)C1=O (stereo not shown) [Example D148, N-(2-(5-chloro-1H-indol-3-yl)ethyl)-1-(3,4-difluorophenyl)-2-oxopyrrolidine-3-carboxamide] showed a pEC50 of 6.16. COc1cccc(Cc2cc(C(=O)NCCc3c[nH]c4ccc(Cl)cc34)no2)c1 [Example D1, N-(2-(5-chloro-1H-indol-3-yl)ethyl)-5-(3-methoxybenzyl)isoxazole-3-carboxamide] showed a pEC50 of 8.70. For Cc1ncoc1C(=O)NCCc1c[nH]c2ccc(Cl)cc12 [Example D112, N-(2-(5-chloro-1H-indol-3-yl)ethyl)-4-methyloxazole-5-carboxamide], the pEC50 was 5.90. Work on Cn1nccc1C(=O)NCCc1c[nH]c2ccc(Cl)cc12 [Example D119, N-(2-(5-chloro-1H-indol-3-yl)ethyl)-1-methyl-1H-pyrazole-5-carboxamide] yielded a pEC50 of 5.99. In the case of O=C(NCCc1c[nH]c2ccc(Cl)cc12)N1CCC(c2ccccc2)C1 (stereo not shown) [Example D63, N-(2-(5-chloro-1H-indol-3-yl)ethyl)-3-phenylpyrrolidine-1-carboxamide], the pEC50 was 6.52. Work on O=C(NCCc1c[nH]c2ccc(Cl)cc12)C1CCN(c2ccc3c(c2)CCC3)C1=O (stereo not shown) [Example D145, N-(2-(5-chloro-1H-indol-3-yl)ethyl)-1-(2,3-dihydro-1H-inden-5-yl)-2-oxopyrrolidine-3-carboxamide] yielded a pEC50 of 6.86. Compound O=C(NCCc1c[nH]c2ccc(Cl)cc12)c1noc(Cc2cccc(C(F)(F)F)c2)n1 [Example D186, N-(2-(5-chloro-1H-indol-3-yl)ethyl)-5-(3-(trifluoromethyl)benzyl)-1,2,4-oxadiazole-3-carboxamide] has a pEC50 of 6.92. With O=C(NCCc1c[nH]c2ccc(Cl)cc12)c1noc(Cc2ccccc2Cl)n1 [Example D191, N-(2-(5-chloro-1H-indol-3-yl)ethyl)-5-(2-chlorobenzyl)-1,2,4-oxadiazole-3-carboxamide] the pEC50 was 7.60. For CCc1ccccc1N1CCC(C(=O)NCCc2c[nH]c3ccc(Cl)cc23)C1=O (stereo not shown) [Example D157, N-(2-(5-chloro-1H-indol-3-yl)ethyl)-1-(2-ethylphenyl)-2-oxopyrrolidine-3-carboxamide], the pEC50 was 5.92. Cn1ccc(N2CCC(C(=O)NCCc3c[nH]c4ccc(Cl)cc34)C2=O)n1 (stereo not shown) [Example D160, N-(2-(5-chloro-1H-indol-3-yl)ethyl)-1-(1-methyl-1H-pyrazol-3-yl)-2-oxopyrrolidine-3-carboxamide] was tested, and the pEC50 was 5.98. Work on O=C(NCCc1c[nH]c2ccc(Cl)cc12)c1cc(C2CCCC2)on1 [Example D2, N-(2-(5-chloro-1H-indol-3-yl)ethyl)-5-cyclopentylisoxazole-3-carboxamide] yielded a pEC50 of 8.52. O=C(NCCc1c[nH]c2ncc(Cl)cc12)c1cc(Cc2cc(F)ccc2F)on1 [Example D128, N-(2-(5-chloro-1H-pyrrolo[2,3-b]pyridin-3-yl)ethyl)-5-(2,5-difluorobenzyl)isoxazole-3-carboxamide] gave a pEC50 of 6.98. Compound O=C(NCCc1c[nH]c2ccc(Cl)cc12)c1cc(Cc2cccc(C(F)(F)F)c2)on1 [Example D30, N-(2-(5-chloro-1H-indol-3-yl)ethyl)-5-(3-(trifluoromethyl)benzyl)isoxazole-3-carboxamide] has a pEC50 of 7.38. In the case of O=C(NCCCc1c[nH]c2ccc(Cl)cc12)c1cc(Cc2cccc(F)c2)on1 [Example D35, N-(3-(5-chloro-1H-indol-3-yl)propyl)-5-(3-fluorobenzyl)isoxazole-3-carboxamide], the pEC50 was 7.22. O=C(NCCc1c[nH]c2ccc(Cl)cc12)c1cc(C(O)c2ccccc2)on1 (stereo not shown) [Example D195, N-(2-(5-chloro-1H-indol-3-yl)ethyl)-5-(hydroxy(phenyl)methyl)isoxazole-3-carboxamide] gave a pEC50 of 7.00. Cc1nc(C(=O)NCCc2c[nH]c3ccc(Cl)cc23)c(C)o1 [Example D116, N-(2-(5-chloro-1H-indol-3-yl)ethyl)-2,5-dimethyloxazole-4-carboxamide] showed a pEC50 of 6.51. In the case of COc1cccc(Cc2cc(C(=O)NCCc3c[nH]c4ccc(Cl)cc34)no2)c1F [Example D21, N-(2-(5-chloro-1H-indol-3-yl)ethyl)-5-(2-fluoro-3-methoxybenzyl)isoxazole-3-carboxamide], the pEC50 was 7.60. Compound O=C(NCCc1c[nH]c2ccc(Cl)cc12)c1noc(Cc2ccc(F)cc2)n1 [Example D171, N-(2-(5-chloro-1H-indol-3-yl)ethyl)-5-(4-fluorobenzyl)-1,2,4-oxadiazole-3-carboxamide] has a pEC50 of 7.49. In the case of COc1ccc(OC)c(Cc2nc(C(=O)NCCc3c[nH]c4ccc(Cl)cc34)no2)c1 [Example D179, N-(2-(5-chloro-1H-indol-3-yl)ethyl)-5-(2,5-dimethoxybenzyl)-1,2,4-oxadiazole-3-carboxamide], the pEC50 was 7.29. Compound Cn1ccc(C(=O)NCCc2c[nH]c3ccc(Cl)cc23)n1 [Example D118, N-(2-(5-chloro-1H-indol-3-yl)ethyl)-1-methyl-1H-pyrazole-3-carboxamide] has a pEC50 of 6.48. Compound CCc1cccc(N2CCC(C(=O)NCCc3c[nH]c4ccc(Cl)cc34)C2=O)c1 (stereo not shown) [Example D82, N-(2-(5-chloro-1H-indol-3-yl)ethyl)-1-(3-ethylphenyl)-2-oxopyrrolidine-3-carboxamide] has a pEC50 of 6.03. O=C(NCCc1c[nH]c2ccc(Cl)cc12)c1noc(Cc2ccc(Cl)c(Cl)c2)n1 [Example D174, N-(2-(5-chloro-1H-indol-3-yl)ethyl)-5-(3,4-dichlorobenzyl)-1,2,4-oxadiazole-3-carboxamide] showed a pEC50 of 6.55. For CC(=O)c1ccc(N2CCC(C(=O)NCCc3c[nH]c4ccc(Cl)cc34)C2=O)cc1 (stereo not shown) [Example D134, 1-(4-acetylphenyl)-N-(2-(5-chloro-1H-indol-3-yl)ethyl)-2-oxopyrrolidine-3-carboxamide], the pEC50 was 7.07. Work on Cn1nc(C(=O)NCCc2c[nH]c3ccc(Cl)cc23)cc1-c1ccco1 [Example D19, N-(2-(5-chloro-1H-indol-3-yl)ethyl)-5-(furan-2-yl)-1-methyl-1H-pyrazole-3-carboxamide] yielded a pEC50 of 7.64. Work on O=C(NCCc1c[nH]c2ccc(Cl)cc12)c1noc(Cc2cccc(Cl)c2)n1 [Example D190, N-(2-(5-chloro-1H-indol-3-yl)ethyl)-5-(3-chlorobenzyl)-1,2,4-oxadiazole-3-carboxamide] yielded a pEC50 of 7.60. Compound O=C(NCCc1c[nH]c2ccc(Cl)cc12)C1CCN(c2ccc(Cl)c(F)c2)C1=O (stereo not shown) [Example D142, N-(2-(5-chloro-1H-indol-3-yl)ethyl)-1-(4-chloro-3-fluorophenyl)-2-oxopyrrolidine-3-carboxamide] has a pEC50 of 6.25. Compound O=C(CCc1c[nH]c2ccc(Cl)cc12)N1CCN(Cc2ccccc2)C1 [Example D126, 1-(3-benzylimidazolidin-1-yl)-3-(5-chloro-1H-indol-3-yl)propan-1-one] has a pEC50 of 6.45. O=C(NCCc1c[nH]c2ccc(Cl)cc12)c1cc(-c2cccs2)on1 [Example D16, N-(2-(5-chloro-1H-indol-3-yl)ethyl)-5-(thiophen-2-yl)isoxazole-3-carboxamide] gave a pEC50 of 7.68. COc1ccc(Cc2nc(C(=O)NCCc3c[nH]c4ccc(Cl)cc34)no2)cc1 [Example D173, N-(2-(5-chloro-1H-indol-3-yl)ethyl)-5-(4-methoxybenzyl)-1,2,4-oxadiazole-3-carboxamide] was tested, and the pEC50 was 7.22. O=C(NCCc1n[nH]c2ccccc12)c1cc(Cc2cc(F)ccc2F)on1 [Example D166, N-(2-(1H-indazol-3-yl)ethyl)-5-(2,5-difluorobenzyl)isoxazole-3-carboxamide] was tested, and the pEC50 was 6.20. Cc1cc(C(=O)NCCc2c[nH]c3ccc(Cl)cc23)no1 [Example D114, N-(2-(5-chloro-1H-indol-3-yl)ethyl)-5-methylisoxazole-3-carboxamide] showed a pEC50 of 7.52. With CCOCC1CC(C(=O)NCCc2c[nH]c3ccc(Cl)cc23)=NO1 (stereo not shown) [Example D216, N-(2-(5-chloro-1H-indol-3-yl)ethyl)-5-(ethoxymethyl)-4,5-dihydroisoxazole-3-carboxamide] the pEC50 was 7.11. In the case of CC(C)c1ccc(N2CCC(C(=O)NCCc3c[nH]c4ccc(Cl)cc34)C2=O)cc1 (stereo not shown) [Example D71, N-(2-(5-chloro-1H-indol-3-yl)ethyl)-1-(4-isopropylphenyl)-2-oxopyrrolidine-3-carboxamide], the pEC50 was 6.38. For N#Cc1cccc(Cc2cc(C(=O)NCCc3c[nH]c4ccc(Cl)cc34)no2)c1 [Example D3, N-(2-(5-chloro-1H-indol-3-yl)ethyl)-5-(3-cyanobenzyl)isoxazole-3-carboxamide], the pEC50 was 8.22. Compound Cc1ccc(-c2cc(C(=O)NCCc3c[nH]c4ccc(Cl)cc34)no2)cc1 [Example D57, N-(2-(5-chloro-1H-indol-3-yl)ethyl)-5-p-tolylisoxazole-3-carboxamide] has a pEC50 of 6.71. O=C(NCCc1c[nH]c2ccc(Cl)cc12)c1cc(C(=O)c2cc(F)ccc2F)on1 [Example D194, N-(2-(5-chloro-1H-indol-3-yl)ethyl)-5-(2,5-difluorobenzoyl)isoxazole-3-carboxamide] gave a pEC50 of 6.95.
